{"source": "ChEMBL document CHEMBL1158979", "about": "“Ryanodyl 3-(pyridine-3-carboxylate): a novel ryanoid from Ryania insecticide” (J Nat Prod, 1991)", "key": {"[1]": {"tested_on": "Musca domestica", "assay": "Insecticidal activity against Musca domestica in presence of piperonyl butoxide applied topically", "assay_type": "functional, organism-based"}, "[2]": {"tested_on": "Tribolium castaneum", "assay": "Insecticidal activity against Tribolium castaneum first instar larvae", "assay_type": "functional, organism-based"}, "[3]": {"tested_on": "Mus musculus", "assay": "Toxicity in ip dosed mouse", "assay_type": "organism-based", "settings": "in vivo"}, "[4]": {"biological_target": "Ryanodine receptor 1 (Oryctolagus cuniculus) (UniProt P11716)", "sequence (P11716 whole entry)": "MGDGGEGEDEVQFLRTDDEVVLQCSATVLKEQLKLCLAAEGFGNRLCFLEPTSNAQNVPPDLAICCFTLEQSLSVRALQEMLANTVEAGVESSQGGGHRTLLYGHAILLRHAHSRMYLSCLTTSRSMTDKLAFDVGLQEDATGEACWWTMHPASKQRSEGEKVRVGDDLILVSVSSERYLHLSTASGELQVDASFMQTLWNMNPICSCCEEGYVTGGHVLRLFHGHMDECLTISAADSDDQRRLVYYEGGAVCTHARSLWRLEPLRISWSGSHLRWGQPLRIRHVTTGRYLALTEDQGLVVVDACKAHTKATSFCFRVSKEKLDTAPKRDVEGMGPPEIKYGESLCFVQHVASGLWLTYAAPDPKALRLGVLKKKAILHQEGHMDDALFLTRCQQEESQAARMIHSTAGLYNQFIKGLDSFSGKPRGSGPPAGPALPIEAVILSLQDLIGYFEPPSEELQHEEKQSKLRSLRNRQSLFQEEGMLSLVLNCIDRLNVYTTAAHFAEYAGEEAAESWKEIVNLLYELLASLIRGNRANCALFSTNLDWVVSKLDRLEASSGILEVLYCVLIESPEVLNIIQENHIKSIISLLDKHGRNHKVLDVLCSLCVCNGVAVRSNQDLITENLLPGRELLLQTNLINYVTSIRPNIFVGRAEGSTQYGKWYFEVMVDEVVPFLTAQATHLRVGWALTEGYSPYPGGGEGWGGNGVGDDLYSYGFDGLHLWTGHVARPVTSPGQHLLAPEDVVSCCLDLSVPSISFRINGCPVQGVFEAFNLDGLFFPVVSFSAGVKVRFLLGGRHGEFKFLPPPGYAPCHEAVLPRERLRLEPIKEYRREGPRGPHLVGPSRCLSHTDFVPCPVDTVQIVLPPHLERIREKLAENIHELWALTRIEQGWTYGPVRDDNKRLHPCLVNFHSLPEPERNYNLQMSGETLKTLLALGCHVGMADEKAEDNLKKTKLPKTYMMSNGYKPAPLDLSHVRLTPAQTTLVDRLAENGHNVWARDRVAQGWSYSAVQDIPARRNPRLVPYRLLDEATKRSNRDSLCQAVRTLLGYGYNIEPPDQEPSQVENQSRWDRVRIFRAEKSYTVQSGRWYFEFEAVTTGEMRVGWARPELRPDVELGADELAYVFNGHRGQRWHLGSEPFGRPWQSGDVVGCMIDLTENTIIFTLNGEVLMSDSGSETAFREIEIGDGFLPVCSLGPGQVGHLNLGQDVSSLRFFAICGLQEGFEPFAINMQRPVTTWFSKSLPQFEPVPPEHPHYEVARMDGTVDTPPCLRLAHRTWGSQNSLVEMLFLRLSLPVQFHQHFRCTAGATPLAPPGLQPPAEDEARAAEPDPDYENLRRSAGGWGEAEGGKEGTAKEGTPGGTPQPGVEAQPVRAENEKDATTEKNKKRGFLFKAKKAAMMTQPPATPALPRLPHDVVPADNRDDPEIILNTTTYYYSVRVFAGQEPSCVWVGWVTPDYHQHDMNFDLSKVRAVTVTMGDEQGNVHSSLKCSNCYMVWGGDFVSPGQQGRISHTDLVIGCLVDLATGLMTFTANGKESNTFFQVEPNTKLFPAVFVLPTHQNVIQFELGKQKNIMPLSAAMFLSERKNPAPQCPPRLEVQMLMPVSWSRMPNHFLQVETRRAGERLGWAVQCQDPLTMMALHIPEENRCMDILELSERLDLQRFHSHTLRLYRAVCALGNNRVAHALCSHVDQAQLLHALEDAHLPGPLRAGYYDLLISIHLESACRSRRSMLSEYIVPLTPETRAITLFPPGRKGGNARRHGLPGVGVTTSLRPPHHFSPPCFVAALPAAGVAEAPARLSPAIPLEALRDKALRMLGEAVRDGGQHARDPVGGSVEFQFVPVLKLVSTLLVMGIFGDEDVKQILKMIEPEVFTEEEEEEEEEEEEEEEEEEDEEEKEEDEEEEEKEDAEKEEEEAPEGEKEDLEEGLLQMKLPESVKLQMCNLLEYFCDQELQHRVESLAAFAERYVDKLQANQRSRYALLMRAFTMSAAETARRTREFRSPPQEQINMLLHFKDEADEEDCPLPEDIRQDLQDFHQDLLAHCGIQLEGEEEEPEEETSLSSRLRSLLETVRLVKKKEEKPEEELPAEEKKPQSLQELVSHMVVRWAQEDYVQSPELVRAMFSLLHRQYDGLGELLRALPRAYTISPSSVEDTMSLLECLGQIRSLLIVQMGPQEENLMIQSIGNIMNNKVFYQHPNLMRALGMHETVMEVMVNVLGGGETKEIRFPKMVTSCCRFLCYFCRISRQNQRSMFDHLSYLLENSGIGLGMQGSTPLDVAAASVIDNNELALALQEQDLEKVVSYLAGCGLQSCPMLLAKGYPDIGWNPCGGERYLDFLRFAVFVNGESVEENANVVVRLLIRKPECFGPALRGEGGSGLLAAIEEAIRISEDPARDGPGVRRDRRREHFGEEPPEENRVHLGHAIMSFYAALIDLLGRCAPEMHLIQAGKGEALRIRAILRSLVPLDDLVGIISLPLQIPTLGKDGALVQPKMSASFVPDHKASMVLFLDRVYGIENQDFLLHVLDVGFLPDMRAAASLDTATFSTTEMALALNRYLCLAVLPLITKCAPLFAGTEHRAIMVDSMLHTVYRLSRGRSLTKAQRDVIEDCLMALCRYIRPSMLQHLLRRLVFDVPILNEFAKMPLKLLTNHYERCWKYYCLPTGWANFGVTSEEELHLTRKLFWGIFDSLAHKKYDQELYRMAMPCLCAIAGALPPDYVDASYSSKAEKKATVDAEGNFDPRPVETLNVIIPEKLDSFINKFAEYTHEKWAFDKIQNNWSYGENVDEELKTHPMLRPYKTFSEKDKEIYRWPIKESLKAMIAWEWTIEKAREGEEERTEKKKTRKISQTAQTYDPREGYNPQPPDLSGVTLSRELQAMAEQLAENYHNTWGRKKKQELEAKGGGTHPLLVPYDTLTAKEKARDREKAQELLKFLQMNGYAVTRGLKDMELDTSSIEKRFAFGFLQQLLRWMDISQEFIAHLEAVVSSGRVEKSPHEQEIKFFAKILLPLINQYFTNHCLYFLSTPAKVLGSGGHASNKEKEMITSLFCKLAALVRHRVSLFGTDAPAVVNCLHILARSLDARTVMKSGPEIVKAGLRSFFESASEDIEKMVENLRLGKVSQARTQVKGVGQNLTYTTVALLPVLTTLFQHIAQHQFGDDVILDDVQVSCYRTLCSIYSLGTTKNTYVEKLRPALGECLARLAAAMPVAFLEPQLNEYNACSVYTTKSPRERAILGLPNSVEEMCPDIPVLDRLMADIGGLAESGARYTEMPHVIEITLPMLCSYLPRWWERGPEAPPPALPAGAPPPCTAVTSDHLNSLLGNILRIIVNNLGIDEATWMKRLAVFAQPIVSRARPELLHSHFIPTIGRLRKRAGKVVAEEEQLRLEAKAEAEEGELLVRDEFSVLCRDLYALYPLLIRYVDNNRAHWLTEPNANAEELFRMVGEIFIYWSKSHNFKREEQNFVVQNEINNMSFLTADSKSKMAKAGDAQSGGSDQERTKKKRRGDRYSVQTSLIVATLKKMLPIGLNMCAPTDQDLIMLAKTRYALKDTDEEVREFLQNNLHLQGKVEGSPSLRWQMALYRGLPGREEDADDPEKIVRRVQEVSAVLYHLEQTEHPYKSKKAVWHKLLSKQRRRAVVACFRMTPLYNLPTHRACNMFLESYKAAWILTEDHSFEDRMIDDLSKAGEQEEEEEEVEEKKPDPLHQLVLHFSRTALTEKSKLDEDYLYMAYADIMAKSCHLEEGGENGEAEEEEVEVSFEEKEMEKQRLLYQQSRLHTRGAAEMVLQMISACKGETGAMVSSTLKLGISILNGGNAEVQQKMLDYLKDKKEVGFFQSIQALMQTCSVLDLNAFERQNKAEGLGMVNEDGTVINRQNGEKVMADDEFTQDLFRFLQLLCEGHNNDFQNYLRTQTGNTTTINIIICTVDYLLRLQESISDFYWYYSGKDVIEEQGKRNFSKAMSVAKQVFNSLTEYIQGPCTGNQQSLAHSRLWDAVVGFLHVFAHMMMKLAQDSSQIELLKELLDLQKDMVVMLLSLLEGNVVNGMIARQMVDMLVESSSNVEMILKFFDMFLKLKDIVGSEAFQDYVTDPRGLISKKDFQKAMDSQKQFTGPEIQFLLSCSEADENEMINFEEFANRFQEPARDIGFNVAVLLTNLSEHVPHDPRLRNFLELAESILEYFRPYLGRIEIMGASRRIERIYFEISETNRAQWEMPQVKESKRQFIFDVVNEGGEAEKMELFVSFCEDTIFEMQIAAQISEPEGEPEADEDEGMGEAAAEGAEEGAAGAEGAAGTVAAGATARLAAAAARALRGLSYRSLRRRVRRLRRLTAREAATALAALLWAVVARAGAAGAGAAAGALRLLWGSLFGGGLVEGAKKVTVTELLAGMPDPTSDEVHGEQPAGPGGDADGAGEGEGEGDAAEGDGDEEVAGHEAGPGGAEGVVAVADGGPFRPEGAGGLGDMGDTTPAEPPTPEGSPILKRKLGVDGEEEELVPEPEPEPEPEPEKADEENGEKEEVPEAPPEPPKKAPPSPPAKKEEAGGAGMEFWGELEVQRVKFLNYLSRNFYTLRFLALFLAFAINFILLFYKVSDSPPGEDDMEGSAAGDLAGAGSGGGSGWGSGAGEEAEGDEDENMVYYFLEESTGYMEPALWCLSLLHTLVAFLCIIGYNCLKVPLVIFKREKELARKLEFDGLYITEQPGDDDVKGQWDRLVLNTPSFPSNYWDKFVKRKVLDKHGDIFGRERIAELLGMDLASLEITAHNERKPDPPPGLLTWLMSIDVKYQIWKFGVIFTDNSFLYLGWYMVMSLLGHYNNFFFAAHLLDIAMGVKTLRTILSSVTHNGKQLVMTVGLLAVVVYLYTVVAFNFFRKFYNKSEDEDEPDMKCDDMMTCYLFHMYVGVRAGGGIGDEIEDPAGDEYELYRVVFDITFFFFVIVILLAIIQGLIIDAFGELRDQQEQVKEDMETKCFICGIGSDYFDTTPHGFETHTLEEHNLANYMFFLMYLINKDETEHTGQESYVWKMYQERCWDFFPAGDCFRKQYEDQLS", "assay": "Displacement of [3H]ryanodine from Ca2+- ryanodine 1 receptor complex in rabbit skeletal muscle"}}, "note": "The source made the active and inactive calls. No cut-off for these calls is given here."}
{"compound": "CC(C)[C@@]1(O)[C@@H](OC(=O)c2cccnc2)[C@@]2(O)[C@]3(C)C[C@@]4(O)O[C@@]5([C@H](O)[C@@H](C)CC[C@]35O)[C@@]2(O)[C@@]41C", "values": [{"measurement": "Activity", "setting": "[1]", "result": "inactive"}, {"measurement": "Activity", "setting": "[2]", "result": "inactive"}, {"measurement": "Activity", "setting": "[3]", "result": "Not Active"}, {"measurement": "Activity", "setting": "[4]", "result": "inactive"}]}
{"compound": "CC(C)[C@@]1(O)[C@@H](OC(=O)c2cc[nH]c2)[C@@]2(O)[C@]3(C)C[C@@]4(O)O[C@@]5([C@H](O)[C@@H](C)CC[C@]35O)[C@@]2(O)[C@@]41C", "values": [{"measurement": "Activity", "setting": "[1]", "result": "Active"}, {"measurement": "Activity", "setting": "[2]", "result": "Active"}]}
{"compound": "CC(C)[C@@]1(O)[C@@H](OC(=O)c2ccc[nH]2)[C@@]2(O)[C@@]3(C)C[C@]4(O)O[C@@]5([C@H](O)[C@@H](C)CC[C@]35O)[C@@]2(O)[C@@]14C", "note": "[RYANODINE]", "values": [{"measurement": "Activity", "setting": "[3]", "result": "Active"}]}
